{"source": "PubChem BioAssay AID1963842", "about": "(Molecular Pharmacology Branch, DTP, NCI, 2024);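 note: spheroids exposed to compounds for one week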;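 for viability, T/C: 100% = vehicle DMSO treated spheroids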", "system": "677734-321-R-J1-PDC complex spheroid viability", "assay": "Anticancer human tumor 677734-321-R-J1-PDC patient-derived soft tissue sarcoma cell line growth inhibition [POLQ]", "details": "for IC50: curve of first compound; for viability, T/C: stronger effect = lower value", "procedure,_shortened": "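Patient-derived tumour cells were co-cultured with HUVEC and mesenchymal stem cells as multicellular spheroids at 37 °C. They were treated with POLQ inhibitors (novobiocin, ART-558, RP6685) alone or combined with other agents. Top concentrations were at or near clinical Cmax (otherwise 10 microM; SN-38 at 1 microM), decreasing in half-log steps.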", "key": {"[1]": {"details": "second compound 0.0316 µM, first compound 0.0316 µM"}, "[2]": {"details": "second compound 0.0316 µM, first compound 0.1 µM"}, "[3]": {"details": "second compound 0.0316 µM, first compound 0.316 µM"}, "[4]": {"details": "second compound 0.0316 µM, first compound 1 µM"}, "[5]": {"details": "second compound 0.0316 µM, first compound 3.16 µM"}, "[6]": {"details": "second compound 0.0316 µM, first compound 10 µM"}, "[7]": {"details": "second compound 0.1 µM, first compound 0.0316 µM"}, "[8]": {"details": "second compound 0.1 µM, first compound 0.1 µM"}, "[9]": {"details": "second compound 0.1 µM, first compound 0.316 µM"}, "[10]": {"details": "second compound 0.1 µM, first compound 1 µM"}, "[11]": {"details": "second compound 0.1 µM, first compound 3.16 µM"}, "[12]": {"details": "second compound 0.1 µM, first compound 10 µM"}, "[13]": {"details": "second compound 0.316 µM, first compound 0.0316 µM"}, "[14]": {"details": "second compound 0.316 µM, first compound 0.1 µM"}, "[15]": {"details": "second compound 0.316 µM, first compound 0.316 µM"}, "[16]": {"details": "second compound 0.316 µM, first compound 1 µM"}, "[17]": {"details": "second compound 0.316 µM, first compound 3.16 µM"}, "[18]": {"details": "second compound 0.316 µM, first compound 10 µM"}, "[19]": {"details": "second compound 1 µM, first compound 0.0316 µM"}, "[20]": {"details": "second compound 1 µM, first compound 0.1 µM"}, "[21]": {"details": "second compound 1 µM, first compound 0.316 µM"}, "[22]": {"details": "second compound 1 µM, first compound 1 µM"}, "[23]": {"details": "second compound 1 µM, first compound 3.16 µM"}, "[24]": {"details": "second compound 1 µM, first compound 10 µM"}, "[25]": {"details": "second compound 3.16 µM, first compound 0.0316 µM"}, "[26]": {"details": "second compound 3.16 µM, first compound 0.1 µM"}, "[27]": {"details": "second compound 3.16 µM, first compound 0.316 µM"}, "[28]": {"details": "second compound 3.16 µM, first compound 1 µM"}, "[29]": {"details": "second compound 3.16 µM, first compound 3.16 µM"}, "[30]": {"details": "second compound 3.16 µM, first compound 10 µM"}, "[31]": {"details": "second compound 10 µM, first compound 0.0316 µM"}, "[32]": {"details": "second compound 10 µM, first compound 0.1 µM"}, "[33]": {"details": "second compound 10 µM, first compound 0.316 µM"}, "[34]": {"details": "second compound 10 µM, first compound 1 µM"}, "[35]": {"details": "second compound 10 µM, first compound 3.16 µM"}, "[36]": {"details": "second compound 10 µM, first compound 10 µM"}}, "data": [{"smiles": "C=CC(=O)N1CCN(c2nc(=O)n(-c3c(C)ccnc3C(C)C)c3nc(-c4c(O)cccc4F)c(F)cc23)C(C)C1", "note": "(centres undefined) + COC1C(OC(N)=O)C(O)C(Oc2ccc3c(O)c(NC(=O)c4ccc(O)c(CC=C(C)C)c4)c(=O)oc3c2C)OC1(C)C", "values": [{"measurement": "IC50", "setting": "second compound 0.0316 µM", "result": "> 10", "unit": "µM"}, {"measurement": "IC50", "setting": "second compound 0.1 µM", "result": "> 10", "unit": "µM"}, {"measurement": "IC50", "setting": "second compound 0.316 µM", "result": "> 10", "unit": "µM"}, {"measurement": "IC50", "setting": "second compound 1 µM", "result": "> 10", "unit": "µM"}, {"measurement": "IC50", "setting": "second compound 3.16 µM", "result": "> 10", "unit": "µM"}, {"measurement": "IC50", "setting": "second compound 10 µM", "result": "> 10", "unit": "µM"}, {"measurement": "viability, T/C", "setting": "[1]", "result": 109, "unit": "%"}, {"measurement": "viability, T/C", "setting": "[2]", "result": 92.4, "unit": "%"}, {"measurement": "viability, T/C", "setting": "[3]", "result": 102, "unit": "%"}, {"measurement": "viability, T/C", "setting": "[4]", "result": 97.1, "unit": "%"}, {"measurement": "viability, T/C", "setting": "[5]", "result": 104, "unit": "%"}, {"measurement": "viability, T/C", "setting": "[6]", "result": 86.4, "unit": "%"}, {"measurement": "viability, T/C", "setting": "[7]", "result": 102, "unit": "%"}, {"measurement": "viability, T/C", "setting": "[8]", "result": 104, "unit": "%"}, {"measurement": "viability, T/C", "setting": "[9]", "result": 103, "unit": "%"}, {"measurement": "viability, T/C", "setting": "[10]", "result": 102, "unit": "%"}, {"measurement": "viability, T/C", "setting": "[11]", "result": 99.9, "unit": "%"}, {"measurement": "viability, T/C", "setting": "[12]", "result": 81.7, "unit": "%"}, {"measurement": "viability, T/C", "setting": "[13]", "result": 102, "unit": "%"}, {"measurement": "viability, T/C", "setting": "[14]", "result": 97.3, "unit": "%"}, {"measurement": "viability, T/C", "setting": "[15]", "result": 106, "unit": "%"}, {"measurement": "viability, T/C", "setting": "[16]", "result": 101, "unit": "%"}, {"measurement": "viability, T/C", "setting": "[17]", "result": 107, "unit": "%"}, {"measurement": "viability, T/C", "setting": "[18]", "result": 84.8, "unit": "%"}, {"measurement": "viability, T/C", "setting": "[19]", "result": 98.4, "unit": "%"}, {"measurement": "viability, T/C", "setting": "[20]", "result": 99.3, "unit": "%"}, {"measurement": "viability, T/C", "setting": "[21]", "result": 104, "unit": "%"}, {"measurement": "viability, T/C", "setting": "[22]", "result": 113, "unit": "%"}, {"measurement": "viability, T/C", "setting": "[23]", "result": 105, "unit": "%"}, {"measurement": "viability, T/C", "setting": "[24]", "result": 89.2, "unit": "%"}, {"measurement": "viability, T/C", "setting": "[25]", "result": 102, "unit": "%"}, {"measurement": "viability, T/C", "setting": "[26]", "result": 101, "unit": "%"}, {"measurement": "viability, T/C", "setting": "[27]", "result": 105, "unit": "%"}, {"measurement": "viability, T/C", "setting": "[28]", "result": 106, "unit": "%"}, {"measurement": "viability, T/C", "setting": "[29]", "result": 106, "unit": "%"}, {"measurement": "viability, T/C", "setting": "[30]", "result": 80.7, "unit": "%"}, {"measurement": "viability, T/C", "setting": "[31]", "result": 107, "unit": "%"}, {"measurement": "viability, T/C", "setting": "[32]", "result": 103, "unit": "%"}, {"measurement": "viability, T/C", "setting": "[33]", "result": 96, "unit": "%"}, {"measurement": "viability, T/C", "setting": "[34]", "result": 106, "unit": "%"}, {"measurement": "viability, T/C", "setting": "[35]", "result": 95.8, "unit": "%"}, {"measurement": "viability, T/C", "setting": "[36]", "result": 86.7, "unit": "%"}]}, {"smiles": "C=CC(=O)N1CCN(c2nc(=O)n(-c3c(C)ccnc3C(C)C)c3nc(-c4c(O)cccc4F)c(F)cc23)C(C)C1", "note": "(centres undefined) + Nc1ccc(C#CCN(C(=O)Cc2ncc(C(F)(F)F)cc2C(F)(F)F)c2ccc(F)cc2)nn1", "values": [{"measurement": "IC50", "setting": "second compound 0.0316 µM", "result": "> 10", "unit": "µM"}, {"measurement": "IC50", "setting": "second compound 0.1 µM", "result": "> 10", "unit": "µM"}, {"measurement": "IC50", "setting": "second compound 0.316 µM", "result": "> 10", "unit": "µM"}, {"measurement": "IC50", "setting": "second compound 1 µM", "result": "> 10", "unit": "µM"}, {"measurement": "IC50", "setting": "second compound 3.16 µM", "result": "> 10", "unit": "µM"}, {"measurement": "IC50", "setting": "second compound 10 µM", "result": 9.87, "unit": "µM"}, {"measurement": "viability, T/C", "setting": "[1]", "result": 114, "unit": "%"}, {"measurement": "viability, T/C", "setting": "[2]", "result": 116, "unit": "%"}, {"measurement": "viability, T/C", "setting": "[3]", "result": 101, "unit": "%"}, {"measurement": "viability, T/C", "setting": "[4]", "result": 101, "unit": "%"}, {"measurement": "viability, T/C", "setting": "[5]", "result": 89.2, "unit": "%"}, {"measurement": "viability, T/C", "setting": "[6]", "result": 74.4, "unit": "%"}, {"measurement": "viability, T/C", "setting": "[7]", "result": 107, "unit": "%"}, {"measurement": "viability, T/C", "setting": "[8]", "result": 104, "unit": "%"}, {"measurement": "viability, T/C", "setting": "[9]", "result": 93.7, "unit": "%"}, {"measurement": "viability, T/C", "setting": "[10]", "result": 118, "unit": "%"}, {"measurement": "viability, T/C", "setting": "[11]", "result": 82.7, "unit": "%"}, {"measurement": "viability, T/C", "setting": "[12]", "result": 63.5, "unit": "%"}, {"measurement": "viability, T/C", "setting": "[13]", "result": 94.4, "unit": "%"}, {"measurement": "viability, T/C", "setting": "[14]", "result": 94.9, "unit": "%"}, {"measurement": "viability, T/C", "setting": "[15]", "result": 101, "unit": "%"}, {"measurement": "viability, T/C", "setting": "[16]", "result": 109, "unit": "%"}, {"measurement": "viability, T/C", "setting": "[17]", "result": 86.9, "unit": "%"}, {"measurement": "viability, T/C", "setting": "[18]", "result": 69.4, "unit": "%"}, {"measurement": "viability, T/C", "setting": "[19]", "result": 112, "unit": "%"}, {"measurement": "viability, T/C", "setting": "[20]", "result": 96.6, "unit": "%"}, {"measurement": "viability, T/C", "setting": "[21]", "result": 92.4, "unit": "%"}, {"measurement": "viability, T/C", "setting": "[22]", "result": 103, "unit": "%"}, {"measurement": "viability, T/C", "setting": "[23]", "result": 104, "unit": "%"}, {"measurement": "viability, T/C", "setting": "[24]", "result": 52.4, "unit": "%"}, {"measurement": "viability, T/C", "setting": "[25]", "result": 107, "unit": "%"}, {"measurement": "viability, T/C", "setting": "[26]", "result": 106, "unit": "%"}, {"measurement": "viability, T/C", "setting": "[27]", "result": 111, "unit": "%"}, {"measurement": "viability, T/C", "setting": "[28]", "result": 102, "unit": "%"}, {"measurement": "viability, T/C", "setting": "[29]", "result": 103, "unit": "%"}, {"measurement": "viability, T/C", "setting": "[30]", "result": 56.6, "unit": "%"}, {"measurement": "viability, T/C", "setting": "[31]", "result": 136, "unit": "%"}, {"measurement": "viability, T/C", "setting": "[32]", "result": 99.3, "unit": "%"}, {"measurement": "viability, T/C", "setting": "[33]", "result": 107, "unit": "%"}, {"measurement": "viability, T/C", "setting": "[34]", "result": 111, "unit": "%"}, {"measurement": "viability, T/C", "setting": "[35]", "result": 85.4, "unit": "%"}, {"measurement": "viability, T/C", "setting": "[36]", "result": 48.7, "unit": "%"}]}]}
